In publication PMC10217311 (Gels, 2023):
Values after ≈ are worked out from the molar mass of the structure shown.

Experiments:
[1] = for T5%, decomposition temperature, 5% weight loss of the initial mass / T50%, decomposition temperature, 50% weight loss of the initial mass: TG, oxidative conditions
Experimental: The thermal stability of drugs is an essential property necessary to control the formulation method of the finished drug. […] Both the temperature at which decomposition begins (Tonset) and the temperature at which mass loss accelerates to its maximum (Tmax) were identified. […]
XRD, thermal stability (TG), phase transition temperatures (DSC), specific rotation, solubility in water, and lipophilicity were also determined. […]
Thermal stability was assessed using thermogravimetric analyses performed on a Netzsch thermomicrobalance TG 209 F1 Libra. The analysis was conducted under oxidative conditions, with a nitrogen flow (as protective gas) of 10 mL/min, an airflow of 25 mL/min, and a temperature range of 25 to 1000 °C. Samples of roughly 5 mg weight were heated at 10°/min. The onset decomposition temperature was calculated using the intersection of TG curve tangents. The temperatures associated with the quickest sample weight loss were calculated using the first derivative of the TG curve (DTG curve). […]

physchem [2] = assay: physchem
Experimental: The following oils were used in the research: hemp oil, evening primrose oil, and sunflower oil, as well as the following surfactants: Tween 40, Tween 60, Span 80, and Tween 80. […] The study was carried out in screw-cap vials with continuous magnetic stirring at 100 rpm at 25 °C for 48 h. A supersaturated solution was obtained and filtered through a syringe filter with MCE (Mixed Cellulose Ester) membrane (0.45 µm, ⌀ 47 mm). The content of the compound in the solution was determined by HPLC. The HPLC analyses were performed using a Shimadzu (Kyoto, Japan) Nexera-i LC-2040C 3D High Plus liquid chromatograph equipped with a DAD/FLD detector and Kinetex® F5 column 100 Å ([…]; 150 × 4.6 mm; Phenomenex, Torrance, CA, USA) maintained at 35 °C. The mixture of acetonitrile and water 60/40 (v/v) was used as the mobile phase under isocratic conditions, with a flow rate of 0.5 mL/min. The detection wavelength was 210 nm. The collected data were acquired and processed using LabSolutions/LC Solution System. Each measurement was performed in triplicate, and the results were averaged.

physchem [3] = assay: physchem; remark: listed apart in the source
Experimental: Lipophilicity is essential for predicting the hydrophobicity and partitioning of drugs in biological systems. Therefore, the test was prepared using the shake-flask method.

[4] = Permeation of the active substance through the skin, Franz diffusion cell; type: in vitro ADME, pig; details: 24 h permeation test; abstract prints human skin
Excerpt: The steady-state flux was estimated from the slope of the linear portion of the plot of cumulative mass in the acceptor phase over time.

Tonset, the onset temperature of the thermal degradation [1] [°C] | T5%, decomposition temperature, 5% weight loss of the initial mass [1] [°C] | T50%, decomposition temperature, 50% weight loss of the initial mass [1] [°C] | solubility at 48 h (physchem [2]; Span 80, 25 °C, aqueous with cosolvent or surfactant or cyclodextrin, thermodynamic from solid) [mg/mL] | solubility at 48 h (physchem [2]; Tween 40) [mg/mL] | solubility at 48 h (physchem [2]; Tween 60, 25 °C, aqueous with cosolvent or surfactant or cyclodextrin, thermodynamic from solid) [mg/mL] | solubility at 48 h (physchem [2]; Tween 80) [mg/mL] | solubility at 48 h (physchem [2]; evening primrose oil, 25 °C, oil or lipid, thermodynamic from solid) [mg/mL] | solubility at 48 h (physchem [2]; hemp oil) [mg/mL] | Solubility (physchem [2]; in Sunflower oil, 25 °C, mean ± S.D., n = 3) [mg/mL] | logP (physchem [3]) | Average cumulative mass of IBU after 24 h from emulsion-based gel, times higher than commercial products [4] | Compound
265.4 | 285.4 | 445.1 | – | – | – | – | – | – | – | – | – | CC(C)Cc1ccc(C(C)C(=O)[O-])cc1.[Na+] (stereo not drawn) [IBUNa, sodium ibuprofenate]
193.2 | 162.1 | 210.3 | 56.89 ± 0.15 (≈ 276 mM) | 466.1 ± 1.71 (≈ 2260 mM) | 519.6 ± 0.69 (≈ 2520 mM) | 411 ± 4.18 (≈ 1990 mM) | 76.74 ± 0.35 (≈ 372 mM) | 95.44 ± 0.03 (≈ 463 mM) | 65.10 ± 1.92 (≈ 316 mM) | 2.758 ± 0.014 | 1.6–4.0 times | CC(C)Cc1ccc(C(C)C(=O)O)cc1 (stereo not drawn) [IBU, ibuprofen]
